Experimental data reported in the METLIN SMRT retention time set (Domingo-Almenara et al. 2019).

Assay: gradient 5% acetonitrile 3 min, to 50% in 2 min, to 85% in 15 min, held 3 min, 100 µL/min
Details: column: Zorbax Extend-C18 2.1 x 50 mm; eluents: water / acetonitrile, 0.1% formic acid
In short: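 Data were gathered over 3 months by HPLC coupled to a quadrupole time-of-flight mass spectrometer, operated in positive and negative ionization mode. Mixtures of ~100 pure standards ran on a Zorbax Extend-C18 column (2.1 × 50 mm, 1.8 μm) at 100 μL/min, with water and acetonitrile each containing 0.1% formic acid and dead and dwell volumes of 40 μL and 900 μL. Retention time was read from adduct peaks picked by computer and checked manually.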

Row | Compound | RP-LC retention time
1 | Cc1nc2cc(-c3noc(-c4cc(Cl)ccc4F)n3)ccc2o1 | 1150 s
2 | Cc1cc(C)n(-c2ccnc(N3CCC(C(=O)NCC(C)C)CC3)n2)n1 | 768 s
3 | CC(C)Cn1ccc2c(cc(C(=O)Nc3ccc(C(C)C)cc3)n2C)c1=O | 1030 s
4 | Cc1nc(-c2cccc(-c3noc(COc4ccc(F)cc4)n3)c2)cs1 | 1200 s
5 | Fc1ccc(-c2csc(Cc3nc(-c4ccccc4Cl)no3)n2)cc1 | 1260 s
6 | O=C(C1CC(=O)N(c2n[nH]c3cccc(F)c23)C1)N1CCC(Cc2ccccc2)CC1 (centres undefined) | 882 s
7 | COCCNS(=O)(=O)c1ccc(Cl)c(-c2nnc(-c3ccccc3)o2)c1 | 870 s
8 | Cc1ccc(CNC(=O)C2CCCN(S(=O)(=O)c3cc(-c4noc(C)n4)cs3)C2)o1 (centres undefined) | 864 s
9 | CCNc1cc(C)nc(N2CCN(C(=O)c3cccc(Br)c3)CC2)n1 | 775 s
10 | Cc1ccc(-c2cn3cccc(C)c3n2)cc1NS(=O)(=O)c1ccccc1 | 672 s
11 | O=C(NCC(c1ccc2c(c1)OCO2)N1CCOCC1)C(=O)Nc1ccc(F)cc1F (centres undefined) | 675 s
12 | CC1=NS(=O)(=O)N(C)C=C1C(=O)OCCc1ccccc1 | 967 s
13 | Cc1ccccc1-n1ccn(Cc2nc(-c3ccc(F)cc3)no2)c(=O)c1=O | 844 s
14 | CCC1Oc2ccc(S(=O)(=O)N3CCC(C(=O)Nc4cccc(Cl)c4)CC3)cc2NC1=O (centres undefined) | 892 s
15 | CCOC(=O)c1noc2ncnc(N3CCC(c4ccccc4)C3)c12 (centres undefined) | 1030 s
16 | CN(CC1CCOCC1)C(=O)Nc1cc(F)ccc1F | 696 s
17 | Cc1noc(CNC(=O)C2CCN(C(=O)c3ccc4ncsc4c3)CC2)n1 | 574 s
18 | Cc1cc(NC(=O)Cn2ccn3nc(-c4ccc(F)cc4)c(CO)c3c2=O)no1 | 727 s
19 | Cc1cccc(NC(=O)Nc2nccn(-c3cccc(Cl)c3)c2=O)c1 | 1040 s
20 | O=C(Nc1nc2c(s1)COc1ccccc1-2)c1cc(Cl)ccc1Cl | 1030 s
21 | O=C(Cn1nc2c(cc1=O)CCCC2)Nc1nc(-c2cccnc2)cs1 | 607 s
22 | COc1ccccc1CCC(=O)N1CCC2(CC1)NCc1ccccc1-n1ccnc12 | 623 s
23 | CCOc1ccc(S(=O)(=O)c2ccc(C)cc2)c2c1no[n+]2[O-] | 1050 s

Row | Compound | RP-LC retention time
24 | Cc1ccc(CNC(=O)C2Cn3cccc3C(=O)N2C)o1 (centres undefined) | 663 s
25 | CCN(CC)S(=O)(=O)c1cc(-c2nnc(-c3cccc(C)c3)o2)ccc1Cl | 1200 s
26 | CC(C(=O)NCCCN1CCOCC1)n1c2ccccc2c2cnn(C)c(=O)c21 (centres undefined) | 599 s
27 | O=C(c1nc(-c2ccnc(N3CCCCC3)c2)no1)N1CCCC1 | 673 s
28 | O=C(Nc1ccccc1F)N1[C@H]2CC[C@@H]1c1cncnc1C2 | 646 s
29 | Cc1cc(F)ccc1N1C(=O)CN(S(C)(=O)=O)CC1(C)C(=O)NCc1ccc(Cl)cc1 (centres undefined) | 856 s
30 | CCCN(C)CC1(O)CCC2(CCN(C(=O)c3sccc3C)CC2)CC1 | 560 s
31 | Cc1ccc(CNC(=O)c2cc3c(s2)CCN(C(=O)c2ccc(F)cc2)C3)o1 | 847 s
32 | CCCCSc1cc(=O)[nH]c(N)n1 | 700 s
33 | COc1ccc(-c2nnc(-c3ccc(C)c(S(=O)(=O)N4CCC(C)CC4)c3)o2)cc1 | 1220 s
34 | O=C(NCCN1CCCCC1)C1CCCN(c2ncc(-c3cccc(F)c3)cn2)C1 (centres undefined) | 696 s
35 | CCCNC(=O)C1CCCN(c2ccc(SCC(=O)Nc3cccc(C)c3C)nn2)C1 (centres undefined) | 665 s
36 | COc1cc([C@@H]2c3cc4c(cc3[C@H](O)[C@@H](CO)[C@@H]2C(=O)NCc2cc(F)ccc2F)OCO4)cc(OC)c1OC | 718 s
37 | Cc1ccc(N2CCC(NC(=O)c3cccc(N(C)C)c3)C2=O)cc1 (centres undefined) | 931 s
38 | NC(=O)C1CCN(C(=O)C2CCN(S(=O)(=O)Cc3ccc(F)cc3)CC2)CC1 | 644 s
39 | CCC(C)NC(=O)CSc1nc(N2CCc3ccccc3C2)nc2ccccc12 (centres undefined) | 795 s
40 | Cc1cccc(-c2nc(CN(c3ccccc3)S(=O)(=O)c3cccs3)c(C)o2)c1 | 1240 s
41 | CC(C)C(=O)N1CCc2cc(-c3ccc(C(=O)NCCN4CCN(C)CC4)cc3)ccc21 | 608 s
42 | CCc1ccc(-n2nc(CO)c(C(=O)NC3CC3)n2)cc1 | 897 s
43 | Cc1ccc(CNC(=O)C2CCN(S(=O)(=O)c3cc(C(=O)N4CCCC4)n(C)c3)CC2)cc1 | 872 s
44 | CCN1CCN(c2ncc3c(n2)CC(C)CC3=O)CC1 (centres undefined) | 575 s
45 | CCn1ccc2sc(C)c(C(=O)NC(C)c3ccc(C)cc3C)c2c1=O (centres undefined) | 975 s
46 | CCOc1ccc(NC(=O)C2CCCN2S(=O)(=O)c2cc3c(cc2C)NC(=O)CO3)cc1 (centres undefined) | 770 s

Row | Compound | RP-LC retention time
47 | Cc1ccccc1C(=O)Nc1ccc(C(=O)N2CCCC(O)c3cc(Cl)ccc32)c(C)c1 (centres undefined) | 899 s
48 | COc1ccc(CCc2nc3cc(-c4c(C)noc4C)ccc3n2C[C@H](C)N2CCOCC2)cc1Cl | 742 s
49 | COc1ccc(Cl)cc1N1C=C(C#N)S(=O)(=O)c2ccccc21 | 918 s
50 | Cc1ccc(CN2CCN(CC(=O)Nc3nc(-c4ccc(C)c(C)c4)cs3)CC2)cc1 | 831 s
51 | COc1ccc2c(c1)C1CC(C)(O2)N(C)C(=O)C1S(=O)(=O)c1ccccc1 (centres undefined) | 916 s
52 | CCn1ccc(C(=O)N2[C@H]3CC[C@@H]2c2cnc(C)nc2C3)n1 | 610 s
53 | COc1cccc(N2CCN(C(=O)CN3CCN(Cc4ccccc4)C(=O)C3=O)CC2)c1 | 726 s
54 | O=C(CC(=O)Nc1ccccc1F)Nc1ccc2nc3n(c(=O)c2c1)CCCCC3 | 722 s
55 | CCn1cc(-c2nc(C(=O)Nc3ccc(C)cc3)cs2)c2cccnc21 | 1160 s
56 | O=C(Nc1ccc(F)cc1)N1CCC(N2CCN(Cc3ccccc3)C2=O)CC1 | 794 s
57 | COc1ccc(NC(=O)CSc2cc(NCc3ccccc3Cl)ncn2)c(OC)c1 | 933 s
58 | COc1cccc(C(O)CN2CCN(c3ccccc3C)CC2)c1 (centres undefined) | 691 s
59 | COc1cc2c(cc1OC)CN(C(=O)CCc1sc(C)nc1-c1cccs1)CC2 | 799 s
60 | CCN1/C(=C/C(C)=O)Sc2ccc(OC)cc21 | 845 s
61 | Cc1ccc(-c2noc(Cc3nc(-c4ccc(Cl)cc4)cs3)n2)cc1 | 1040 s
62 | CCc1cccc(NC(=O)Cc2csc3nc(-c4ccc(C)c(C)c4)cn23)c1 | 962 s
63 | O=C(NCC1CCN(c2ncccn2)CC1)c1ccc(Br)o1 | 647 s
64 | O=C(Nc1ccc2c(c1)OCO2)C1CC(=O)N(CCc2c[nH]c3ccc(Cl)cc23)C1 (centres undefined) | 801 s
65 | O=C(Nc1cccc(OC(F)(F)F)c1)C1CCCN(c2nnc3ccccn23)C1 (centres undefined) | 784 s
66 | O=C(CNC(=O)c1ccc(=O)[nH]c1)NCc1ccc(OCc2ccccc2)cc1 | 661 s
67 | CCOC(=O)C1CCN(c2cc3c(cc2NC(=O)CCC2CCCC2)n(C)c(=O)c(=O)n3C)CC1 | 999 s
68 | CCOc1ccc(NC(=O)Cn2c(C)nc3cc4c(cc32)OCCO4)cc1 | 658 s
69 | CCOC(=O)c1c(C)oc2nc(C)nc(NCCCN3CCN(c4ccc(F)cc4)CC3)c12 | 738 s

Row | Compound | RP-LC retention time
70 | COc1ccc(NC(=O)C2CCN(S(C)(=O)=O)c3cc(Cl)ccc3O2)cc1 (centres undefined) | 918 s
71 | Cn1nnc2ccc(-c3noc(-c4cc(F)ccc4Cl)n3)cc21 | 1060 s
72 | COC(=O)c1c(C)[nH]c(C(=O)N2CCC(CC(=O)NCCCN3CCOCC3)CC2)c1C | 575 s
73 | COc1ccc(-c2noc(CN3C(=O)COc4cc(Cl)ccc43)n2)cc1 | 1060 s
74 | C[C@@H](NC(=O)c1cccc(F)c1)C(=O)NCc1cscn1 | 636 s
75 | CC(C)(C)CC(=O)N1CCN(c2nc(CN3CCCCCC3)cs2)CC1 | 668 s
76 | Cn1cc(S(=O)(=O)N2CCCC2)cc1C(=O)N1CCn2c1nc1ccccc12 | 652 s
77 | Cc1ccc(NC(=O)NC(C)C(=O)N2CCc3ccccc32)c(Cl)c1 (centres undefined) | 967 s
78 | COc1ccc(-c2noc(CN3C(=O)COc4ccccc43)n2)c(OC)c1 | 887 s
79 | CCN1C(=O)C(C)(C(=O)Nc2cccc(Cl)c2)Oc2cccnc21 (centres undefined) | 982 s
80 | COCCCNCc1c(C(=O)O)c(C)n(Cc2ccc(Cl)cc2)c1C | 672 s
81 | CCOC(=O)c1cnc(N2CCN(c3ccccn3)CC2)c2ccccc12 | 692 s
82 | O=C(Nc1nc2c(F)cc(F)cc2s1)C1CCCN(S(=O)(=O)c2cccs2)C1 (centres undefined) | 767 s
83 | COc1ccc(CC(=O)N2C[C@@H]3C[C@H](NC(=O)c4ccccc4)[C@H]2C3)cc1 | 725 s
84 | CC1(O)CCOC2(CCN(C(=O)c3ccc(Br)o3)CC2)C1 (centres undefined) | 690 s
85 | CCOC(=O)CNC(=O)Cn1cnc2c(oc3ccccc32)c1=O | 624 s
86 | CC(C)Sc1cc(NCCCO)c([N+](=O)[O-])c2nonc12 | 723 s
87 | COc1cccc(NC(=O)Cc2csc3nc(-c4ccccc4)cn23)c1 | 791 s
88 | COc1ccccc1N1CCN(C(=O)Cn2cnc3onc(C)c3c2=O)CC1 | 720 s
89 | COc1cccc(N2CC(C(=O)N3CC(c4nc(Cc5ccccc5)no4)C3)CC2=O)c1 (centres undefined) | 776 s
